Source: PubChem BioAssay (NCI)
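Each compound was tested at five concentrations against cells in 96-well plates for 48 hours. Here, GI50 denotes the concentration required for 50% inhibition of growth. TGI: concentration producing complete growth inhibition.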

How the values were obtained:
Assay in all cases: NCI anticancer screen, dose series, 48 h
[1] = test system: 786-0 renal
[2] = test system: A498 renal
[3] = test system: A549 NSCLC
[4] = test system: ACHN renal
[5] = test system: BT-549 breast
[6] = test system: CAKI-1 renal
[7] = test system: CCRF-CEM leukemia
[8] = test system: COLO 205 colon
[9] = test system: DU-145 prostate
[10] = test system: EKVX NSCLC
[11] = test system: HCC-2998 colon
[12] = test system: HCT-116 colon
[13] = test system: HCT-15 colon
[14] = test system: HL-60(TB) leukemia
[15] = test system: HOP-62 NSCLC
[16] = test system: HOP-92 NSCLC
[17] = test system: HS 578T breast
[18] = test system: HT29 colon
[19] = test system: IGROV1 ovarian
[20] = test system: K-562 leukemia
[21] = test system: KM12 colon
[22] = test system: LOX IMVI melanoma
[23] = test system: M14 melanoma
[24] = test system: MALME-3M melanoma
[25] = test system: MCF7 breast
[26] = test system: MDA-MB-231 breast
[27] = test system: MDA-MB-435
[28] = test system: MDA-MB-468 breast
[29] = test system: MOLT-4 leukemia
[30] = test system: NCI-H226 lung
[31] = test system: NCI-H23 lung
[32] = test system: NCI-H460 lung
[33] = test system: NCI-H522 lung
[34] = test system: NCI/ADR-RES ovarian
[35] = test system: OVCAR-3 ovarian
[36] = test system: OVCAR-4 ovarian
[37] = test system: OVCAR-5 ovarian
[38] = test system: OVCAR-8 ovarian
[39] = test system: PC-3 prostate
[40] = test system: RPMI-8226 leukemia
[41] = test system: RXF 393 renal
[42] = test system: SF-268 CNS
[43] = test system: SF-295 CNS
[44] = test system: SF-539 CNS
[45] = test system: SK-MEL-2 melanoma
[46] = test system: SK-MEL-28 melanoma
[47] = test system: SK-MEL-5 melanoma
[48] = test system: SK-OV-3 ovarian
[49] = test system: SN12C renal
[50] = test system: SNB-19 CNS
[51] = test system: SNB-75 CNS
[52] = test system: SR leukemia
[53] = test system: SW-620 colon
[54] = test system: T-47D breast
[55] = test system: TK-10 renal
[56] = test system: U251 CNS
[57] = test system: UACC-257 melanoma
[58] = test system: UACC-62 melanoma
[59] = test system: UO-31 renal

## Cc1ccc(CNC(=O)Cc2ccc3c(c2)CN(C2CCC(=O)NC2=O)C3=O)cc1 (centres undefined)
[1]
  GI50: 20.2 nM
[2]
  GI50: 18.3 nM
  TGI: 648 nM
[3]
  GI50: 51.5 nM
  TGI: > 100000 nM
[4]
  GI50: 445 nM
  TGI: > 100000 nM
[5]
  GI50: < 10 nM
  TGI: < 12.8 nM
[6]
  GI50: 25.1 nM
  TGI: > 100000 nM
[7]
  GI50: < 10 nM
  TGI: > 100000 nM
[8]
  GI50: < 10 nM
  TGI: 54.5 nM
[9]
  GI50: 1090 nM
  TGI: > 100000 nM
[10]
  GI50: 384 nM
  TGI: > 100000 nM
[11]
  GI50: < 10 nM
  TGI: 258 nM
[12]
  GI50: > 36500 nM
  TGI: > 100000 nM
[13]
  GI50: 16 nM
  TGI: 888 nM
[14]
  GI50: < 10 nM
  TGI: 2740 nM
[15]
  GI50: < 10 nM
  TGI: 110 nM
[16]
  GI50: < 10 nM
  TGI: < 19.6 nM
[17]
  GI50: < 10 nM
  TGI: 267 nM
[18]
  GI50: 50.1 nM
  TGI: > 100000 nM
[19]
  GI50: < 10 nM
  TGI: 148 nM
[20]
  GI50: 51.5 nM
  TGI: > 100000 nM
[21]
  GI50: 31.1 nM
  TGI: > 100000 nM
[22]
  GI50: > 71600 nM
  TGI: > 100000 nM
[23]
  GI50: < 13.1 nM
  TGI: 1850 nM
[24]
  GI50: < 10 nM
  TGI: < 12.6 nM
[25]
  GI50: 21.7 nM
  TGI: > 100000 nM
[26]
  GI50: < 10 nM
[27]
  GI50: 43.6 nM
  TGI: > 100000 nM
[28]
  GI50: < 10 nM
[29]
  GI50: < 10 nM
  TGI: > 100000 nM
[30]
  GI50: < 10 nM
  TGI: 1030 nM
[31]
  GI50: 5090 nM
  TGI: > 100000 nM
[32]
  GI50: > 100000 nM
  TGI: > 100000 nM
[33]
  GI50: 622 nM
  TGI: > 100000 nM
[34]
  GI50: 470 nM
  TGI: > 100000 nM
[35]
  GI50: 160 nM
  TGI: > 100000 nM
[36]
  GI50: 32.1 nM
[37]
  GI50: 16.9 nM
  TGI: 1780 nM
[38]
  GI50: < 10 nM
[39]
  GI50: < 10 nM
[40]
  GI50: 40.9 nM
  TGI: > 100000 nM
[41]
  GI50: 24.8 nM
  TGI: 955 nM
[42]
  GI50: 29.9 nM
  TGI: > 100000 nM
[43]
  GI50: 46 nM
  TGI: > 100000 nM
[44]
  GI50: 50.3 nM
  TGI: > 100000 nM
[45]
  GI50: 20.6 nM
  TGI: 94.5 nM
[46]
  GI50: 70.1 nM
  TGI: > 100000 nM
[47]
  GI50: 14.8 nM
  TGI: 59.4 nM
[48]
  GI50: 77 nM
[49]
  GI50: 21.7 nM
[50]
  GI50: < 11.5 nM
[51]
  GI50: < 10 nM
  TGI: 357 nM
[52]
  GI50: 4540 nM
  TGI: > 100000 nM
[53]
  GI50: < 10 nM
  TGI: > 100000 nM
[54]
  GI50: < 10 nM
  TGI: 29.2 nM
[55]
  GI50: 95.3 nM
  TGI: > 100000 nM
[56]
  GI50: 375 nM
  TGI: > 100000 nM
[57]
  GI50: > 100000 nM
  TGI: > 100000 nM
[58]
  GI50: 309 nM
  TGI: > 100000 nM
[59]
  GI50: 19.1 nM
  TGI: 469 nM
